≈ marks a conversion by molar mass, not a printed value.
Test system: Escherichia coli
Experiment: Antibacterial activity against Escherichia coli NIHJ JC-2 assessed as bacterial growth inhibition
Type: functional

SMILES	MIC
NCC1CCN(c2c(F)c3c(c(=O)c(C(=O)O)cn3C3CC3)c3[nH]cnc23)C1 (centres undefined)	0.025 µg/mL (≈ 0.0649 µM)
O=C(O)c1cn(C2CC2)c2c(F)c(N3CCNCC3)c3nc[nH]c3c2c1=O	0.025 µg/mL (≈ 0.0673 µM)
C[C@@H]1CN(c2c(F)c(N)c3c(=O)c(C(=O)O)cn(C4CC4)c3c2F)C[C@H](C)N1 [SPARFLOXACIN]	0.0125 µg/mL (≈ 0.0319 µM)
CN1CCN(c2cc3c(c(=O)c(C(=O)O)cn3C3CC3)c3[nH]nnc23)CC1	0.025 µg/mL (≈ 0.0679 µM)
CN1CCN(c2c(F)c3c(c(=O)c(C(=O)O)cn3C3CC3)c3[nH]nnc23)CC1	0.025 µg/mL (≈ 0.0647 µM)
NCC1CCN(c2c(F)c3c(c(=O)c(C(=O)O)cn3C3CC3)c3[nH]nnc23)C1 (centres undefined)	0.025 µg/mL (≈ 0.0647 µM)
NCC1CCN(c2cc3c(c(=O)c(C(=O)O)cn3C3CC3)c3[nH]cnc23)C1 (centres undefined)	0.025 µg/mL (≈ 0.068 µM)
CN1CCN(c2c(F)c3c(c(=O)c(C(=O)O)cn3C3CC3)c3[nH]cnc23)CC1	0.025 µg/mL (≈ 0.0649 µM)
CN1CCN(c2c(Cl)c3c(c(=O)c(C(=O)O)cn3C3CC3)c3[nH]cnc23)CC1	0.025 µg/mL (≈ 0.0622 µM)
NC1CCN(c2c(F)c3c(c(=O)c(C(=O)O)cn3C3CC3)c3[nH]nnc23)C1 (centres undefined)	0.025 µg/mL (≈ 0.0671 µM)
NC1CCN(c2c(Cl)c3c(c(=O)c(C(=O)O)cn3C3CC3)c3[nH]cnc23)C1 (centres undefined)	0.025 µg/mL (≈ 0.0645 µM)
O=C(O)c1cn(C2CC2)c2c(Cl)c(N3CCNCC3)c3nc[nH]c3c2c1=O	0.025 µg/mL (≈ 0.0645 µM)
O=C(O)c1cn(C2CC2)c2cc(N3CCNCC3)c3nc[nH]c3c2c1=O	0.025 µg/mL (≈ 0.0707 µM)
O=C(O)c1cn(C2CC2)c2c(F)c(N3CCNCC3)c3nn[nH]c3c2c1=O	0.025 µg/mL (≈ 0.0671 µM)
NC1CCN(c2c(F)c3c(c(=O)c(C(=O)O)cn3C3CC3)c3[nH]cnc23)C1 (centres undefined)	0.025 µg/mL (≈ 0.0673 µM)
NC1CCN(c2c(Cl)c3c(c(=O)c(C(=O)O)cn3C3CC3)c3[nH]nnc23)C1 (centres undefined)	0.025 µg/mL (≈ 0.0643 µM)
NC1CCN(c2cc3c(c(=O)c(C(=O)O)cn3C3CC3)c3[nH]cnc23)C1 (centres undefined)	0.025 µg/mL (≈ 0.0707 µM)
CN1CCN(c2c(Cl)c3c(c(=O)c(C(=O)O)cn3C3CC3)c3[nH]nnc23)CC1	0.025 µg/mL (≈ 0.0621 µM)
CN1CCN(c2cc3c(c(=O)c(C(=O)O)cn3C3CC3)c3[nH]cnc23)CC1	0.025 µg/mL (≈ 0.068 µM)

Test system: Escherichia coli
Experiment: Antibacterial activity against Escherichia coli assessed as bacterial growth inhibition incubated for 24 hrs by agar streak dilution method
Type: functional

SMILES	MIC
CCn1cc(C(=O)O)c(=O)c2cc(F)c(N3CCN(C4SCC(=O)N4c4nc5ccc([N+](=O)[O-])cc5s4)CC3)cc21 (centres undefined)	2 µg/mL (≈ 3.34 µM)
CCn1cc(C(=O)O)c(=O)c2cc(F)c(N3CCN(C4SCC(=O)N4c4nc5ccc(F)cc5s4)CC3)cc21 (centres undefined)	2 µg/mL (≈ 3.5 µM)
CCOc1ccc2nc(N3C(=O)CSC3N3CCN(c4cc5c(cc4F)c(=O)c(C(=O)O)cn5CC)CC3)sc2c1 (centres undefined)	2 µg/mL (≈ 3.35 µM)
CCn1cc(C(=O)O)c(=O)c2cc(F)c(N3CCN(C4SCC(=O)N4c4nc5ccc(NC(C)=O)cc5s4)CC3)cc21 (centres undefined)	2 µg/mL (≈ 3.27 µM)
CCOc1ccc2nc(N3C(=O)CSC3N3CCN(c4cc5c(cc4F)c(=O)c(C(=O)O)cn5C4CC4)CC3)sc2c1 (centres undefined)	2 µg/mL (≈ 3.28 µM)
N#Cc1ccc2nc(N3C(=O)CSC3N3CCN(c4cc5c(cc4F)c(=O)c(C(=O)O)cn5C4CC4)CC3)sc2c1 (centres undefined)	2 µg/mL (≈ 3.39 µM)
CCn1cc(C(=O)O)c(=O)c2cc(F)c(N3CCN(C4SCC(=O)N4c4nc5ccc(C#N)cc5s4)CC3)cc21 (centres undefined)	2 µg/mL (≈ 3.46 µM)
O=C(O)c1cn(C2CC2)c2cc(N3CCN(C4SCC(=O)N4c4nc5ccc(Br)cc5s4)CC3)c(F)cc2c1=O (centres undefined)	2 µg/mL (≈ 3.1 µM)
CCn1cc(C(=O)O)c(=O)c2cc(F)c(N3CCN(C4SCC(=O)N4c4nc5ccc(OC)cc5s4)CC3)cc21 (centres undefined)	2 µg/mL (≈ 3.43 µM)
CCn1cc(C(=O)O)c(=O)c2cc(F)c(N3CCN(C4SCC(=O)N4c4nc5ccc(Br)cc5s4)CC3)cc21 (centres undefined)	2 µg/mL (≈ 3.16 µM)
CC(=O)Nc1ccc2nc(N3C(=O)CSC3N3CCN(c4cc5c(cc4F)c(=O)c(C(=O)O)cn5C4CC4)CC3)sc2c1 (centres undefined)	2 µg/mL (≈ 3.21 µM)
COc1ccc2nc(N3C(=O)CSC3N3CCN(c4cc5c(cc4F)c(=O)c(C(=O)O)cn5C4CC4)CC3)sc2c1 (centres undefined)	2 µg/mL (≈ 3.36 µM)
O=C(O)c1cn(C2CC2)c2cc(N3CCN(C4SCC(=O)N4c4nc5ccc(F)cc5s4)CC3)c(F)cc2c1=O (centres undefined)	2 µg/mL (≈ 3.43 µM)
O=C(O)c1cn(C2CC2)c2cc(N3CCN(C4SCC(=O)N4c4nc5ccc([N+](=O)[O-])cc5s4)CC3)c(F)cc2c1=O (centres undefined)	2 µg/mL (≈ 3.28 µM)

Test system: Escherichia coli
Experiment: Antibacterial activity against Escherichia coli NCDC 134 assessed as bacterial growth inhibition
Type: functional

SMILES	MIC
COc1ccc(/C=N/NC(=O)c2cn(C3CC3)c3cc(N4CCNCC4)c(F)cc3c2=O)cc1O	> 64 µg/mL
O=C(N/N=C/c1ccc([N+](=O)[O-])cc1)c1cn(C2CC2)c2cc(N/N=C/c3ccc([N+](=O)[O-])cc3)c(F)cc2c1=O	> 64 µg/mL
CN(C)Cc1cn(-c2cc3c(cc2F)c(=O)c(C(=O)NO)cn3C2CC2)nn1	> 64 µg/mL
CCn1cc(C(=O)O)c(=O)c2cc(F)c(N3CCN(CC(=O)Nc4nc5ccc(C)cc5s4)CC3)cc21	6 µg/mL (≈ 11.5 µM)
O=C(N/N=C/c1ccc2c(c1)OCO2)c1cn(C2CC2)c2cc(N3CCNCC3)c(F)cc2c1=O	> 64 µg/mL
CCCN(CCC)Cc1cn(-c2cc3c(cc2F)c(=O)c(C(=O)NO)cn3C2CC2)nn1	> 64 µg/mL
O=C(N/N=C/c1ccccc1O)c1cn(C2CC2)c2cc(N3CCNCC3)c(F)cc2c1=O	> 64 µg/mL
O=C(CN1CCN(c2cc3c(cc2F)c(=O)c(C(=O)O)cn3C2CC2)CC1)Nc1nc2c(Cl)ccc(Cl)c2s1	6 µg/mL (≈ 10.2 µM)
CCn1cc(C(=O)O)c(=O)c2cc(F)c(N3CCN(CC(=O)Nc4nc5ccc(F)cc5s4)CC3)cc21	6 µg/mL (≈ 11.4 µM)
O=C(NO)c1cn(C2CC2)c2cc(-n3cc(CN4CCOCC4)nn3)c(F)cc2c1=O	> 64 µg/mL
O=C(CN1CCN(c2cc3c(cc2F)c(=O)c(C(=O)O)cn3C2CC2)CC1)Nc1nc2ccc([N+](=O)[O-])cc2s1	6 µg/mL (≈ 10.6 µM)
CCn1cc(C(=O)O)c(=O)c2cc(F)c(N3CCN(CC(=O)Nc4nc5ccc([N+](=O)[O-])cc5s4)CC3)cc21	6 µg/mL (≈ 10.8 µM)
O=C(N/N=C/c1ccc([N+](=O)[O-])cc1)c1cn(C2CC2)c2cc(N3CCNCC3)c(F)cc2c1=O	> 64 µg/mL
O=C(N/N=C/c1ccccc1)c1cn(C2CC2)c2cc(N/N=C/c3ccccc3)c(F)cc2c1=O	> 64 µg/mL
COc1c(N2CCN(CC(=O)Nc3nc4ccc(Cl)cc4s3)C(C)C2)c(F)cc2c(=O)c(C(=O)O)cn(C3CC3)c12 (centres undefined)	6 µg/mL (≈ 10 µM)
O=C(N/N=C/c1ccc2c(c1)OCO2)c1cn(C2CC2)c2cc(N/N=C/c3ccc4c(c3)OCO4)c(F)cc2c1=O	> 64 µg/mL
CCn1cc(C(=O)O)c(=O)c2cc(F)c(N3CCN(CC(=O)Nc4nc5ccc(Cl)cc5s4)CC3)cc21	6 µg/mL (≈ 11 µM)
O=C(N/N=C/c1ccc(F)cc1)c1cn(C2CC2)c2cc(N/N=C/c3ccc(F)cc3)c(F)cc2c1=O	> 64 µg/mL
COc1ccc(/C=N/NC(=O)c2cn(C3CC3)c3cc(N4CCNCC4)c(F)cc3c2=O)cc1	> 64 µg/mL

SMILES	MIC
CCN(CC)Cc1cn(-c2cc3c(cc2F)c(=O)c(C(=O)NO)cn3C2CC2)nn1	> 64 µg/mL
COc1cc(/C=N/NC(=O)c2cn(C3CC3)c3cc(N/N=C/c4cc(OC)c(OC)c(OC)c4)c(F)cc3c2=O)cc(OC)c1OC	> 64 µg/mL
Cc1ccc2nc(NC(=O)CN3CCN(c4cc5c(cc4F)c(=O)c(C(=O)O)cn5C4CC4)CC3)sc2c1	6 µg/mL (≈ 11.2 µM)
O=C(N/N=C/c1ccccc1O)c1cn(C2CC2)c2cc(N/N=C/c3ccccc3O)c(F)cc2c1=O	> 64 µg/mL
COc1c(N2CCN(CC(=O)Nc3nc4ccc([N+](=O)[O-])cc4s3)C(C)C2)c(F)cc2c(=O)c(C(=O)O)cn(C3CC3)c12 (centres undefined)	6 µg/mL (≈ 9.83 µM)
CC(C)NCc1cn(-c2cc3c(cc2F)c(=O)c(C(=O)NO)cn3C2CC2)nn1	> 64 µg/mL
O=C(CN1CCN(c2cc3c(cc2F)c(=O)c(C(=O)O)cn3C2CC2)CC1)Nc1nc2ccc(F)cc2s1	6 µg/mL (≈ 11.1 µM)
O=C(N/N=C/c1ccc(F)cc1)c1cn(C2CC2)c2cc(N3CCNCC3)c(F)cc2c1=O	> 64 µg/mL
CCn1cc(C(=O)O)c(=O)c2cc(F)c(N3CCN(CC(=O)Nc4nc5c(Cl)ccc(Cl)c5s4)CC3)cc21	6 µg/mL (≈ 10.4 µM)
COc1c(N2CCN(CC(=O)Nc3nc4ccc(C)cc4s3)C(C)C2)c(F)cc2c(=O)c(C(=O)O)cn(C3CC3)c12 (centres undefined)	6 µg/mL (≈ 10.4 µM)
COc1c(N2CCN(CC(=O)Nc3nc4c(Cl)ccc(Cl)c4s3)C(C)C2)c(F)cc2c(=O)c(C(=O)O)cn(C3CC3)c12 (centres undefined)	6 µg/mL (≈ 9.46 µM)
COc1ccc(/C=N/NC(=O)c2cn(C3CC3)c3cc(N/N=C/c4ccc(OC)cc4)c(F)cc3c2=O)cc1	> 64 µg/mL
O=C(CN1CCN(c2cc3c(cc2F)c(=O)c(C(=O)O)cn3C2CC2)CC1)Nc1nc2ccc(Cl)cc2s1	6 µg/mL (≈ 10.8 µM)
COc1ccc(/C=N/NC(=O)c2cn(C3CC3)c3cc(N/N=C/c4ccc(OC)c(O)c4)c(F)cc3c2=O)cc1O	> 64 µg/mL
COc1cc(/C=N/NC(=O)c2cn(C3CC3)c3cc(N4CCNCC4)c(F)cc3c2=O)cc(OC)c1OC	> 64 µg/mL
O=C(N/N=C/c1ccccc1)c1cn(C2CC2)c2cc(N3CCNCC3)c(F)cc2c1=O	> 64 µg/mL
O=C(NO)c1cn(C2CC2)c2cc(-n3cc(CN4CCNCC4)nn3)c(F)cc2c1=O	> 64 µg/mL
COc1c(N2CCN(CC(=O)Nc3nc4ccc(F)cc4s3)C(C)C2)c(F)cc2c(=O)c(C(=O)O)cn(C3CC3)c12 (centres undefined)	6 µg/mL (≈ 10.3 µM)

Test system: Escherichia coli
Experiment: Antibacterial activity against Escherichia coli assessed as bacterial growth inhibition incubated for 18 hrs by twofold serial dilution assay
Type: functional

SMILES	MIC
CCn1cc(C(=O)O)c(=O)c2cc(F)c(N3CCN(C/C(=N/O)c4ccoc4)CC3)cc21	0.049 µg/mL (≈ 0.111 µM)
O=C(CN1CCN(c2cc3c(cc2F)c(=O)c(C(=O)O)cn3C2CC2)CC1)c1ccoc1	0.049 µg/mL (≈ 0.112 µM)
CO/N=C(/CN1CCN(c2cc3c(cc2F)c(=O)c(C(=O)O)cn3C2CC2)CC1)c1cccs1	0.0075 µg/mL (≈ 0.0155 µM)
CCn1cc(C(=O)O)c(=O)c2cc(F)c(N3CCN(C/C(=N/OCc4ccccc4)c4ccoc4)CC3)nc21	0.049 µg/mL (≈ 0.0918 µM)
CCn1cc(C(=O)O)c(=O)c2cc(F)c(N3CCN(C/C(=N/OCc4ccccc4)c4ccoc4)CC3)cc21	0.049 µg/mL (≈ 0.092 µM)
O=C(CN1CCN(c2cc3c(cc2F)c(=O)c(C(=O)O)cn3C2CC2)CC1)c1cccs1	0.0075 µg/mL (≈ 0.0165 µM)
O=C(O)c1cn(C2CC2)c2cc(N3CCN(C/C(=N/O)c4ccoc4)CC3)c(F)cc2c1=O	0.049 µg/mL (≈ 0.108 µM)
CCn1cc(C(=O)O)c(=O)c2cc(F)c(N3CCN(C/C(=N/O)c4ccoc4)CC3)nc21	0.049 µg/mL (≈ 0.111 µM)
O=C(O)c1cn(C2CC2)c2nc(N3CCN(C/C(=N/OCc4ccccc4)c4ccoc4)CC3)c(F)cc2c1=O	0.049 µg/mL (≈ 0.0898 µM)
O=C(O)c1cn(C2CC2)c2c(F)c(N3CCNCC(O)C3)c(F)cc2c1=O (centres undefined)	0.25 µg/mL (≈ 0.659 µM)
O=C(O)c1cn(C2CC2)c2c(F)c(N3CCNCC(F)C3)c(F)cc2c1=O (centres undefined)	0.03 µg/mL (≈ 0.0787 µM)
CCn1cc(C(=O)O)c(=O)c2cc(F)c(N3CCN(CC(=O)c4ccoc4)CC3)nc21	0.049 µg/mL (≈ 0.114 µM)
CCn1cc(C(=O)O)c(=O)c2cc(F)c(N3CCNCC3)nc21 [ENOXACIN]	0.13 µg/mL (≈ 0.406 µM)
O=C(O)c1cn(C2CC2)c2c(F)c(N3CCCNCC3)c(F)cc2c1=O	0.03 µg/mL (≈ 0.0826 µM)
